This is an account of results in patent US8507499B2, “Substituted indole/indazole-pyrimidinyl compounds” (Confluence Life Sciences, Inc., priority 2010, dated 2013).

pIC50: −log10 of the molar value. Values joined by “and” are separate entries in the source; they are usually repeats but may differ in a detail not shown here. Equal values may be shown once.

This assay has as its target p38/MK2 (Homo sapiens, UniProt Q16539). As to the kind of experiment: p38α/MK2 cascade assay (phosphorylation of Hsp27 peptide, Caliper LabChip 3000). Format: biochemical. The conditions noted are these: Hsp27 peptide 1 μM, MgATP 10 μM, two values printed in one cell. The method, then:
The novel, MK2 substrate-selective inhibitory mechanism of compounds is evaluated in enzyme assays comparing inhibitor potency in blocking p38/MK2 versus p38/PRAK induced phosphorylation of an HSP-27 derived peptide substrate. The ability of compounds to inhibit activated phospho-p38α is evaluated using a p38α/MK2 and a p38α/PRAK cascade assay format. The kinase activity of p38α is determined by its ability to phosphorylate GST-MK2 or GST-PRAK. Activation of MK2 or PRAK by p38α is quantitated by measuring the phosphorylation of a fluorescently-labeled, MK2 specific peptide substrate, Hsp27 peptide (FITC-KKKALSRQLSVAA). The phosphorylation of the Hsp27 peptide is quantified using the Caliper LabChip 3000. Kinase reactions are carried out in a 384-well plate (Matrical, MP101-1-PP) in 20 mM HEPES pH 7.5, 10 mM MgCl2, 0.0005% Tween-20, 0.01% BSA, 1 mM DTT, and 2% DMSO. […] The p38α compound inhibitory potency is quantitated from dose-response IC50 values or Ki values from p38α/MK2 cascade assays while the substrate selectivity is calculated as a ratio of p38α/PRAK:p38α/MK2 IC50 values. Species compounds of Formula I, described hereinabove, evaluated in this assay, are expected to provide a therapeutic benefit in the treatment of p38 kinase mediated diseases, such as autoimmune diseases and lymphoma.

Chain of p38/MK2 (Q16539 whole entry): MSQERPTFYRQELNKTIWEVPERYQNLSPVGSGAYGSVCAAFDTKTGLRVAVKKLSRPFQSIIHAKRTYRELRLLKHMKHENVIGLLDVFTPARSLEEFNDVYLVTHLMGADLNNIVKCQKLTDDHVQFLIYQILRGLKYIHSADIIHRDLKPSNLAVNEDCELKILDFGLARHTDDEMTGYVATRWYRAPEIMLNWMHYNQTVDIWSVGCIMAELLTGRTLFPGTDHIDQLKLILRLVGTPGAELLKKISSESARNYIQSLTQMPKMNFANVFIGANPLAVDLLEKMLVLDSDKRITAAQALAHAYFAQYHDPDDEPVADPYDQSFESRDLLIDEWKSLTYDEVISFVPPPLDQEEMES

Usually pIC50 stands for the negative decadic logarithm of the IC50, by convention in mol/L. Higher therefore signals a low IC50. With `CC(C)(C)c1nccc(-c2c[nH]c3cc(Cl)c(C(=O)N4CCC(Cc5ccc(F)cc5)CC4)cc23)n1` [Example 57, (3-(2-tert-Butyl-pyrimidin-4-yl)-6-chloro-1H-indol-5-yl)-(4-(4-fluorobenzyl)-piperidin-1-yl)-methanone], the pIC50 was 5.54 and 5.41.
